Experimental data taken from the NIST ThermoML archive (doi:10.1021/je100231g).
Where “and” joins values, the source holds several entries; their conditions need not be identical. Equal values may be shown once. Where a name gives a salt, the structure may show the parent alone.

Conditions: Liquid, Gas Saturation Method

CCOC(=O)C(=O)OCC [diethyl ethanedioate]
Conditions | vapor or sublimation pressure [kPa]
283.6 K | 0.0164
288.5 K | 0.0256
293.4 K | 0.0392
298.3 K | 0.0571
303.3 K | 0.0814
308.4 K | 0.1254
311.3 K | 0.1509
313.5 K | 0.175
316.4 K | 0.2075
318.3 K | 0.2434
321.4 K | 0.2972
325.4 K | 0.3834
329.5 K | 0.4832
333.5 K | 0.6275

CCCCOC(=O)CCCCC(=O)OCCCC [dibutyl hexanedioate]
Conditions | vapor or sublimation pressure [kPa]
313.2 K | 0.00018
318.2 K | 0.0003
323.2 K | 0.00048
328.2 K | 0.00079
333.3 K | 0.00127
338.4 K | 0.00202
343.1 K | 0.00304
348.2 K | 0.00467
353.2 K | 0.00705
358.2 K | 0.0102
363.2 K | 0.0143
368.2 K | 0.0201
373.2 K | 0.0285

CCCOC(=O)CCCCC(=O)OCCC [dipropyl hexanedioate]
Conditions | vapor or sublimation pressure [kPa]
318.8 K | 0.00173
321.7 K | 0.00222
323.5 K | 0.0026
327.4 K | 0.00367
333.2 K | 0.00602
336.1 K | 0.00765
339.1 K | 0.00972
342.1 K | 0.0122
345.5 K | 0.0152
348.3 K | 0.0196
351.5 K | 0.0253
354.2 K | 0.0306
357.1 K | 0.0373
361.2 K | 0.0485
365.3 K | 0.0639

CCCOC(=O)C(=O)OCCC [di-n-propyl oxalate]
Conditions | vapor or sublimation pressure [kPa]
293.6 K | 0.00943
298.5 K | 0.0139
301.4 K | 0.0175
306.4 K | 0.0255
308.4 K | 0.0304
311.4 K | 0.0362
313.4 K | 0.0413
316.3 K | 0.052
318.6 K | 0.0626
321.4 K | 0.0741
323.3 K | 0.0903
326.3 K | 0.1085
328.3 K | 0.1248
330.4 K | 0.1423
333.5 K | 0.1801

CCOC(=O)CCCCC(=O)OCC [diethyl hexanedioate]
Conditions | vapor or sublimation pressure [kPa]
303.5 K | 0.0022
308.2 K | 0.00343
313.3 K | 0.00523
318.2 K | 0.00793
323.1 K | 0.0118
328.2 K | 0.0185
329.6 K | 0.0209
333.2 K | 0.0273
335.2 K | 0.0323
338.2 K | 0.039
340.2 K | 0.0462
343.2 K | 0.0561
346.2 K | 0.0698
349.1 K | 0.0851
352.2 K | 0.1061

CCOC(=O)CCCC(=O)OCC [diethyl glutarate]
Conditions | vapor or sublimation pressure [kPa]
298.3 K | 0.00352
303.4 K | 0.00575
308.6 K | 0.00877
311.2 K | 0.0108
313.5 K | 0.0134
316.2 K | 0.0161
318.2 K | 0.0185
318.5 K | 0.02
322.2 K | 0.0254
323.3 K | 0.0277
328.2 K | 0.0405
333.2 K | 0.0601
338.2 K | 0.0874
343.2 K | 0.1236
347.9 K | 0.1725

CCCCOC(=O)C(=O)OCCCC [di-n-butyl oxalate]
Conditions | vapor or sublimation pressure
291.4 K | 0.00087 kPa
293.4 K | 0.0011 kPa
295.7 K | 0.00143 kPa
298.8 K | 0.00182 kPa
300.4 K | 0.00209 kPa
302.3 K | 0.00249 kPa
302.8 K | 0.00276 kPa
303.3 K | 0.00283 kPa
305.2 K | 0.0034 kPa
305.3 K | 0.00334 kPa
308.2 K | 0.00446 kPa
308.3 K | 0.00433 kPa
308.4 K | 0.00448 kPa
311.3 K | 0.00565 kPa
312.3 K | 0.00624 kPa
313.2 K | 0.0066 kPa
314.3 K | 0.00737 kPa
315.5 K | 0.00855 kPa
317.4 K | 0.00937 kPa
317.8 K | 0.0105 kPa
318.2 K | 0.0105 kPa
319.9 K | 0.0124 kPa
320.2 K | 0.0115 kPa
322.5 K | 0.0149 kPa
323.2 K | 0.0159 kPa
323.4 K | 0.0151 kPa
325.3 K | 0.0176 kPa and 0.018 kPa
326.4 K | 0.0193 kPa
327.5 K | 0.0215 kPa
328.2 K | 0.0223 kPa
328.5 K | 0.0226 kPa
330.3 K | 0.0254 kPa
331.1 K | 0.0289 kPa
331.4 K | 0.0292 kPa
333.2 K | 0.0339 kPa
333.5 K | 0.0346 kPa and 0.0333 kPa
335.2 K | 0.0375 kPa
336.3 K | 0.0414 kPa
337 K | 0.0434 kPa
338.1 K | 0.0475 kPa
338.6 K | 0.0475 kPa
340.2 K | 0.0543 kPa
340.8 K | 0.0586 kPa
341.4 K | 0.0568 kPa
343.2 K | 0.0651 kPa
343.4 K | 0.0693 kPa
343.5 K | 0.0645 kPa
345.2 K | 0.0741 kPa
348.3 K | 0.0962 kPa
351.2 K | 0.1137 kPa
353.1 K | 0.1332 kPa
358.2 K | 0.1811 kPa
